We go through one molecule from paper PMC11474028, “Lipopeptide antibiotics disrupt interactions of undecaprenyl phosphate with UptA” (Proceedings of the National Academy of Sciences of the …, 2024).

Entries after “also recorded” stand apart in the source; their conditions may differ.

One assay has as its target UptA (Bacillus subtilis, UniProt O31823). Nature of the assay: biochemical. In kind it is binding. The protocol:
We explored the binding affinity of UptA toward C55-P by recording mass spectra for solutions containing 2.5 µM UptA and 0 to 40 µM C55-P in 200 mM ammonium acetate, 0.05% LDAO at pH 8.0. […] Further increase in the concentration of C55-P enhanced the intensity of the UptA:C55-P complex, together with the emergence of additional binding events (Fig. 2A). We deconvoluted the spectra ([34]) to extract mean relative intensities of bound and unbound forms of UptA in the spectral series.
To investigate the binding selectivity of UptA for monophosphate (C55-P) versus diphosphate (C55-PP) forms of the lipid carrier, we performed comparative binding assays. First, we recorded mass spectra for a mixture of UptA with increasing concentrations of C55-PP (SI Appendix, Fig. S3). […] We then fit the data to Hill equation to obtain an apparent Kd for this system.
(§1) UptA is a member of the DedA family of transporters whose cellular functions are potentially driven by proton-motive force and provide conditional fitness to bacteria under alkaline conditions ([25], [26], [36]). […] To this end, we equilibrated C55-P with UptA at a protein/ligand molar ratio of 1:4 in a buffer of the same composition but at pH 8.0 and 5.0. […] As a negative control, we tested for pH sensitivity of C55-P binding to MraY, the latter being the downstream enzyme in the peptidoglycan pathway that couples UM5 to C55-P. To this end, we equilibrated MraY and C55-P at a molar ratio of 1:4 in a buffer of pH 8.0 and pH 5.0.
Next, we investigated the chain length selectivity of UptA by testing its interaction with geranylgeranyl phosphate (C20-P), hexaprenyl phosphate (C30-P), and C55-P; the latter representing the native form of the lipid carrier in the model organisms B. subtilis and E. coli ([39]). For this experiment, we incubated 4 µM UptA with a 10-fold molar excess of C20-P, C30-P, and C55-P at pH 8.0 and recorded spectra under the same conditions. […] The length and stereochemistry of lipid tails can influence their interactions with membrane proteins ([40]).
Detailed experimental procedures are provided in SI Appendix. Briefly, UptA (wild type and mutants) was expressed in E. coli C43(DE3) cells (Lucigen) with GFP fusion on the C-terminus and solubilized from the membrane fraction by n-dodecyl-β-D-maltopyranoside (DDM). After purification by affinity chromatography, the GFP was cleaved by TEV protease and removed, and UptA was further purified by size-exclusion chromatography in a buffer containing 20 mM Tris-HCl (pH 8.0), 200 mM NaCl, 0.02% DDM. Before measurements, proteins were buffer-exchanged into 0.05% LDAO, 200 mM ammonium acetate at the desired pH using a centrifugal buffer exchange device (Micro Bio-Spin 6, Bio-Rad). Stock solutions of lipids were prepared from chloroform/methanol solution by evaporating aliquots of known volume in a SpeedVac. After drying, the lipid films were weighed and resuspended to a final concentration of 0.5 mM in 200 mM ammonium acetate and 0.05% LDAO by vertexing.

A further assay concerns MraY. In kind it is binding, Aquifex aeolicus. Particulars: MraY (2.5 µM) and C55-P (10 µM), molar ratio 1:4, pH 8.0 vs pH 5.0; negative control.
Excerpt: as §1

UptA, sequence (O31823 whole entry): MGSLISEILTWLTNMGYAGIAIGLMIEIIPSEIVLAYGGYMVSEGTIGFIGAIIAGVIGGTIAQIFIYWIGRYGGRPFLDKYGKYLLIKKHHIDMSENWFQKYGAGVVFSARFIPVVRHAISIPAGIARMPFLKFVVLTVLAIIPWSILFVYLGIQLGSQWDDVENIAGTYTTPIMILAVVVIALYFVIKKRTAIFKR

Turning to `CC(C)=CCC/C(C)=C/CC/C(C)=C/CC/C(C)=C\CC/C(C)=C\CC/C(C)=C\CC/C(C)=C\CC/C(C)=C\CC/C(C)=C\CC/C(C)=C\CC/C(C)=C\COP(=O)(O)O` [C55-P, undecaprenyl phosphate], the “protein/ligand molar ratio at which relative intensity of first binding event plateaued” value on UptA (2.5 µM UptA, 0 to 40 µM C55-P, pH 8.0, 0.05% LDAO) was ~ 4. Also, the “binding to UptA by lipid chain length (in words)” value on UptA (4 µM UptA, 10-fold molar excess (40 µM) of lipid, pH 8.0, 200 mM ammonium acetate, 0.05% LDAO) was “highest intensity of protein/ligand complexes; also recorded: more favorably than C55-PP, C30-P, and C20-P”. At UptA (equimolar UptA and C55-P, 200 mM ammonium acetate, 0.05% LDAO, pH 8.0), the “binding to UptA, equimolar mixture (in words)” value is recorded as “high-affinity binding interactions”. Moreover, the Kd on UptA (native MS, 2.5 µM UptA, 0 to 40 µM C55-P, 200 mM ammonium acetate, 0.05% LDAO, pH 8.0, Hill equation fit to mean relative intensities of three replicates, 95% CI: C55-P 5.0 to 6.4 µM, C55-PP 9.5 to 32.8 µM, read-out: apparent Kd for the binding of one ligand molecule (1×) to UptA) is 5.7 µM. Moreover, the “selectivity of UptA for C55-P versus C55-PP (in words)” value on UptA (native MS, 200 mM ammonium acetate, pH 8, 0.05% LDAO) is “UptA is more selective toward C55-P than C55-PP”. At UptA (pH 8.0 vs pH 5.0), the “pH sensitivity of C55-P binding to UptA (in words)” value is recorded as “environmental pH modulates the interaction of C55-P with UptA; also recorded: less C55-P binding to UptA in the presence of excess H^+”. In addition, the “number of C55-P molecules in complex with UptA dimer” value on UptA (protein/ligand molar ratio 1:4, pH 8.0) was “up to two”. On UptA (protein/ligand molar ratio 1:4, pH 8.0 vs pH 5.0, 200 mM ammonium acetate, 0.05% LDAO), the “factor by which ligand-bound UptA peaks are more intense at pH 8.0 compared to pH 5.0” value was determined as 3. Moreover, at UptA (wild type, protein/ligand molar ratio 1:4, pH 8.0), the “C55-P binding to UptA dimer versus monomer (in words)” value is reported as “dimer interacts more favorably with C55-P than the monomer UptA”. In the assay with MraY, the “pH sensitivity of C55-P binding to MraY (in words)” value is “no pH-dependency in C55-P binding by MraY; also recorded: no significant difference in the intensity of C55-P bound to MraY at pH 8.0 and at pH 5.0”.
